In publication PMC10934261, “Designing Potent Anti-Cancer Agents: Synthesis and Molecular Docking Studies of Thieno[2,3-d][1,2,4]triazolo[1,5-a]pyrimidine Derivatives” (Molecules, 2024):
Where “and” joins values, the source holds several entries; their conditions need not be identical. Identical values can stand only once.

How the values were obtained:
[1] = system: human breast MCF-7 cancer cell line; experiment: In vitro cytotoxic screening (MTT assay), MCF-7; format: cell-based; settings: for Percentage cytotoxicity on MCF-7: average ± standard deviation
Protocol: (§1) Using human breast MCF-7, colorectal HCT-116, and prostate PC-3 cancer cell lines, preliminary antiproliferative effectiveness of cyclopenta[4,5]thieno[2,3-d][1,2,4]triazolo[1,5-a]pyrimidin-9(6H)-ones 4–16 was established in vitro through MTT assay at different concentrations (100, 50, 25 and 12.5 μM) (Figure 2).
(§2) The cell lines were obtained from Karolinska Center, Department of Oncology and Pathology, Karolinska Institute and Hospital, Stockholm, Sweden. as follows: human breast MCF-7, colorectal HCT-116 and prostate PC-3 cancer cell lines and human skin normal BJ-1 cell line. Exponentially, cells were cultured at a concentration of 10^4 cells/well for 24 h, afterwards fresh medium containing different concentrations of the tested samples was added. Serial two-fold dilution of the tested samples were added using a multichannel pipette. Moreover, all cells were cultivated at 37 °C, 5% CO2 and 95% humidity. Also, incubation of control cells occurred at 37 °C. However, after incubation for 24 h different concentrations of samples (100, 50, 25 and 12.5 µM) were added and the incubation was continued for 48 h, then crystal violet solution 1% was added to each well for 0.5 h to examine the presence of viable cells. After rinsing the wells using water until stain free, 30% glacial acetic acid was added to all wells with shaking the plates on a Microplate reader (TECAN, Inc.) to measure the absorbance at a wavelength of 490 nm. The cytotoxicity was estimated by IC50 in μM, which is the concentration that inhibits 50% of growth of cancer cells. […]
(§3) 1.1. In vitro cytotoxic screening
(§4) The cell lines were obtained from Karolinska Center, Department of Oncology and Pathology, Karolinska Institute and Hospital, Stockholm, Sweden. as follows: human breast MCF-7, colorectal HCT-116 and prostate PC-3 cancer cell lines and human skin normal BJ-1 cell line. Exponentially, cells were placed in 10^4 cells/ well for 24 h, and then add fresh medium which containing different concentration of the tested sample. Serial two-fold dilution of the tested sample were added using a multichannel pipette. Moreover, all cells were cultivated at 37 °C, 5% CO2 and 95% humidity. Also, incubation of control cells occurred at 37 °C. However, after incubation for 24 h different concentrations of sample (100, 50, 25 and 12.5 µM) were added and continued the incubation for 48 h, then, add the crystal violet solution 1% to each well for 0.5 h to examine viable cells. Rinse the wells using water until no stain. After that, add 30% glacial acetic acid to all wells with shaking plates on Microplate reader (TECAN, Inc.) to measure the absorbance, using a test wavelength of 490 nm. Besides, compare the treated samples with the control cell. The cytotoxicity was estimated by IC50 in (μ M), the concentration that inhibits 50% of growth of cancer cell. […]
(§5) The molecular docking simulation of the promising in vitro screened cyclopenta[4,5]thieno[2,3-d][1,2,4]triazolo[1,5-a]pyrimidin-9(6H)-ones 10b and 10e against EGFR and PI3K was done using the Molecular Operating Environment software (MOE-Dock) version 2014.0901. The co-crystallized structures of EGFR and PI3K kinases complexed with their native ligands, erlotinib and quinolone LXX, were downloaded from the protein data bank (PDB codes: 1M17 and 3L54, respectively). All minimizations were performed using MOE until an RMSD gradient of 0.05 kcal∙mol−1Å−1 with MMFF94x force field and the partial charges were automatically calculated. Preparation of the enzyme structures was done for molecular docking using Protonate 3D protocol with the default options in MOE. London dG scoring function and Triangle Matcher placement method were used in the docking protocol. Initially, the original ligands were re-docked into the active binding site of EGFR and PI3K kinases to assess the root-mean-square deviation values. Then, the docking studies of the newly targeted […]

[2] = system: human prostate PC-3 cancer cell line; experiment: In vitro cytotoxic screening (MTT assay), PC-3; format: cell-based; settings: average ± standard deviation
Protocol: as §1, §2, §3, §4, §5

[3] = system: human colorectal HCT-116 cancer cell line; experiment: In vitro cytotoxic screening (MTT assay), HCT-116; format: cell-based; settings: average ± standard deviation
Protocol: as §1, §2, §3, §4, §5

Row | Structure (SMILES) | melting point [°C] | Percentage cytotoxicity on MCF-7 ([1]; 12.5 µM) [%] | Percentage cytotoxicity on MCF-7 ([1]; 25 µM) [%] | Percentage cytotoxicity on MCF-7 ([1]; 50 µM) | Percentage cytotoxicity on MCF-7 ([1]; 100 µM) | Percentage cytotoxicity on PC-3 ([2]; 12.5 µM) [%] | Percentage cytotoxicity on PC-3 ([2]; 25 µM) [%] | Percentage cytotoxicity on PC-3 ([2]; 50 µM) [%] | Percentage cytotoxicity on PC-3 ([2]; 100 µM) [%] | Percentage cytotoxicity on HCT-116 ([3]; 12.5 µM) [%] | Percentage cytotoxicity on HCT-116 ([3]; 25 µM) [%] | Percentage cytotoxicity on HCT-116 ([3]; 50 µM) [%] | Percentage cytotoxicity on HCT-116 ([3]; 100 µM) [%] | IC50 ([1]; Homo sapiens, MCF7, MCF-7, 48 h incubation, mean of three values, read-out: IC50 (Mean ± SD) MCF-7) [µM]
1 | Cc1nn2c(=O)c3c4c(sc3nc2[nH]1)CCC4 [Compound 5, 2-Methyl-7,8-dihydro-3H-cyclopenta[4,5]thieno[2,3-d][1,2,4]triazolo[1,5-a]pyrimidin-9(6H)-one] | 93 to 95 | 0.0±0.005 | 0.0±0.005 | 0.0±0.005% | 18.9±10% | 0.0±0.005 | 0.0±0.005 | 0.0±0.005 | 0.0±0.005 | 0.0±0.005 | 0.0±0.005 | 0.0±0.005 | 0.0±0.005 | –
2 | COc1ccc(-c2nn3c(=O)c4c5c(sc4nc3[nH]2)CCC5)cc1 [Compound 10d, 2-(4-Methoxyphenyl)-7,8-dihydro-3H-cyclopenta[4,5]thieno[2,3-d][1,2,4]triazolo[1,5-a]pyrimidin-9(6H)-one] | 180 to 182 | 12.7±2.1 | 35.1±5.9 | 47.3±8.5% | 53.1±6.1% | 9.1±6.3 | 21.6±0.06 | 26.9±1.2 | 36.4±3.1 | 0.0±0.005 | 0.0±0.005 | 0.0±0.005 | 14.3±4.3 | –
3 | CC(=O)C/C(C)=N/n1c(N)nc2sc3c(c2c1=O)CCC3 [Compound 8, (E)-2-Amino-3-((4-oxopentan-2-ylidene)amino)-3,5,6,7-tetrahydro-4H-cyclopenta[4,5]thieno[2,3-d]pyrimidin-4-one] | > 300 | 30.1±4.1 | 31.9±3.1 | 40.9±7.8% | 45.7±5.9% | 0.0±0.005 | 0.0±0.005 | 0.0±0.005 | 0.0±0.005 | 0.0±0.005 | 0.0±0.005 | 0.0±0.005 | 0.0±0.005 | –
4 | O=c1c2c3c(sc2nc2nc([C@H](O)[C@@H](O)[C@@H](O)[C@H](O)CO)[nH]n12)CCC3 [Compound 11b, 2-((1S,2R,3S,4R)-1,2,3,4,5-pentahydroxypentyl)-1,6,7,8-tetrahydro-9H-cyclopenta[4,5]thieno[2,3-d][1,2,4]triazolo[1,5-a]pyrimidin-9-one] | > 300 | 0.0±0.005 | 0.0±0.005 | 22.1±6.9% | 39.4±8.3% | 0.0±0.005 | 0.0±0.005 | 0.0±0.005 | 12.7±3.8 | 18.2±2.3 | 16.1±1.6 | 21.8±1.9 | 18.7±7.6 | –
5 | O=c1c2c3c(sc2nc2nc([C@H](O)[C@@H](O)[C@H](O)[C@H](O)CO)[nH]n12)CCC3 [Compound 11a, 2-((1S,2R,3R,4R)-1,2,3,4,5-pentahydroxypentyl)-1,6,7,8-tetrahydro-9H-cyclopenta[4,5]thieno[2,3-d][1,2,4]triazolo[1,5-a]pyrimidin-9-one] | > 300 | 0.0±0.005 | 16.2±1.6 | 41.3±4.3% and 36.6±6.3% | 36.6±6.3% and 41.3±4.3% | 9.9±2.5 | 21.9±1.0 | 7.3±0.3 | 33.9±3.5 | 12.94±4.6 | 12.94±4.6 | 25.8±1.6 | 32.4±3.9 | –
6 | CC(=O)OC[C@@H](OC(C)=O)[C@@H](OC(C)=O)[C@H](OC(C)=O)[C@@H](OC(C)=O)c1nc2nc3sc4c(c3c(=O)n2[nH]1)CCC4 [Compound 12a, (1S,2R,3R,4R)-1-(9-oxo-1,7,8,9-tetrahydro-6H-cyclopenta[4,5]thieno[2,3-d][1,2,4]triazolo[1,5-a]pyrimidin-2-yl)pentane-1,2,3,4,5-pentayl pentaacetate] | > 300 | – | – | – | – | – | – | – | – | – | – | – | – | –
7 | O=c1c2c3c(sc2nc2[nH]cnn12)CCC3 [Compound 4, 7,8-Dihydro-3H-cyclopenta[4,5]thieno[2,3-d][1,2,4]triazolo[1,5-a]pyrimidin-9(6H)-one] | > 300 | 31.5±5.7 | 23.6±3.2 | 35.5±4.4% | 34.8±4.1% | 0.0±0.005 | 0.0±0.005 | 0.0±0.005 | 11.3±3.7 | 0.0±0.005 | 0.0±0.005 | 0.0±0.005 | 9.1±2.0 | –
8 | O=c1c2c3c(sc2nc2nc([C@@H](O)[C@H](O)[C@H](O)CO)[nH]n12)CCC3 [Compound 11d, 2-((1R,2S,3R)-1,2,3,4-tetrahydroxybutyl)-1,6,7,8-tetrahydro-9H-cyclopenta[4,5]thieno[2,3-d][1,2,4]triazolo[1,5-a]pyrimidin-9-one] | > 300 | 0.0±0.005 | 29.2±2.9 | 47.9±2.2% | 50.5±0.2% | 5.4±6.8 | 6.8±0.3 | 9.7±0.5 | 25.3±3.8 | 0.0±0.005 | 0.0±0.005 | 0.0±0.005 | 10.0±3.4 | –
9 | O=c1c2c3c(sc2nc2[nH]c(=S)[nH]n12)CCC3 [Compound 9, 2-Thioxo-2,3,7,8-tetrahydro-1H-cyclopenta[4,5]thieno[2,3-d][1,2,4]triazolo[1,5-a]pyrimidin-9(6H)-one] | > 300 | 0.0±0.005 | 28.4±2.6 | 32.7±2.4% | 62.5±7.6% | 3.7±1.3 | 6.3±0.9 | 7.8±1.3 | 19.3±3.5 | 0.0±0.005 | 0.0±0.005 | 0.0±0.005 | 0.0±0.005 | 71.8 ± 1.05
10 | N#CCc1nn2c(=O)c3c4c(sc3nc2[nH]1)CCC4 [Compound 7, 2-(9-Oxo-6,7,8,9-tetrahydro-3H-cyclopenta[4,5]thieno[2,3-d][1,2,4]triazolo[1,5-a]pyrimidin-2-yl)acetonitrile] | > 300 | – | – | – | – | – | – | – | – | – | – | – | – | –
